In brackets after ≈: the same amount, converted by molar mass.
Tests used:
physchem = details: for Conc (solubility): pH 1.6 FaSSGF buffer, ambient temperature, shaken
Source text: Samples of 4-(5-Chloro-2-isopropylaminopyridin-4-yl)-1H-pyrrole-2-carboxylic acid [1-(3-chlorophenyl)-2-hydroxyethyl]amide Form C and 4-(5-Chloro-2-isopropylaminopyridin-4-yl)-1H-pyrrole-2-carboxylic acid [1-(3-chlorophenyl)-2-hydroxyethyl]amide malonate Form A were each shaken at ambient temperature in fasting state simulated gastric fluid (FaSSGF) pH 1.6 for 30. Concentration of 4-(5-Chloro-2-isopropylaminopyridin-4-yl)-1H-pyrrole-2-carboxylic acid [1-(3-chlorophenyl)-2-hydroxyethyl]amide was measured at 5, 15 and 30 minutes.

[1] = Pharmacokinetic evaluation in male beagles, two-way cross-over, oral gavage; type: in vivo
Source text: […]. […] […]

[2] = Aqueous dissolution/solubility in fasting state simulated intestinal fluid (FaSSIF) pH 6.5 after 30 min in FaSSGF; type: physicochemical; details: pH 6.5 FaSSIF buffer, after 30 min FaSSGF
Method: After 30 minutes, the samples were removed from FaSSGF, placed in fasting state simulated intestinal fluid (FaSSIF) pH 6.5, with shaking, for an additional 5 hours.

[3] = pH 1.6, fassgf or other biorelevant, thermodynamic from solid

Structure (SMILES)	solubility at 5 min (physchem; [3]) [µg/mL]	solubility at 15 min (physchem; [3]) [µg/mL]	solubility at 30 min (physchem; [3]) [µg/mL]	coefficient of variation (CV) of average area under the curve (AUC) ([1]; male, beagle, dog, in vivo, po, 5 mg/kg) [%]	solubility at 10 min ([2]; fasting state simulated intestinal fluid (FaSSIF), thermodynamic from solid, 10 min, read-out: Conc (solubility)) [µg/mL]	solubility at 30 min ([2]; fasting state simulated intestinal fluid (FaSSIF), thermodynamic from solid, 30 min, read-out: Conc (solubility)) [µg/mL]	solubility at 60 min ([2]; fasting state simulated intestinal fluid (FaSSIF), thermodynamic from solid, 60 min, read-out: Conc (solubility)) [µg/mL]	solubility at 90 min ([2]; fasting state simulated intestinal fluid (FaSSIF), thermodynamic from solid, 90 min, read-out: Conc (solubility)) [µg/mL]	solubility at 120 min ([2]; fasting state simulated intestinal fluid (FaSSIF), thermodynamic from solid, 120 min, read-out: Conc (solubility)) [µg/mL]	solubility at 180 min ([2]; fasting state simulated intestinal fluid (FaSSIF), thermodynamic from solid, 180 min, read-out: Conc (solubility)) [µg/mL]	solubility at 270 min ([2]; fasting state simulated intestinal fluid (FaSSIF), thermodynamic from solid, 270 min, read-out: Conc (solubility)) [µg/mL]	solubility at 300 min ([2]; fasting state simulated intestinal fluid (FaSSIF), thermodynamic from solid, 300 min, read-out: Conc (solubility)) [µg/mL]	Conc (solubility) (physchem; 15 min) [µg/mL]	Conc (solubility) (physchem; 30 min) [µg/mL]	coefficient of variation (CV) of average area under the curve (AUC) ([1]; male beagles, single dose 5 mg/kg by oral gavage, plasma 0-24 hours) [%]	Conc (solubility) ([2]; 30 min) [µg/mL]	Conc (solubility) ([2]; 120 min) [µg/mL]	Conc (solubility) ([2]; 270 min) [µg/mL]	Conc (solubility) ([2]; 300 min) [µg/mL]
CC(C)Nc1cc(-c2c[nH]c(C(=O)N[C@H](CO)c3cccc(Cl)c3)c2)c(Cl)cn1 [Malonate Form A, 4-(5-Chloro-2-isopropylaminopyridin-4-yl)-1H-pyrrole-2-carboxylic acid [1-(3-chlorophenyl)-2-hydroxyethyl]amide malonate Form A]	381 (≈ 878 µM)	385 (≈ 889 µM)	369 (≈ 851 µM)	50	63.3 (≈ 146 µM)	110 (≈ 254 µM)	114 (≈ 263 µM)	115 (≈ 266 µM)	110 (≈ 254 µM)	110 (≈ 255 µM)	116 (≈ 267 µM)	115 (≈ 266 µM)							
CC(C)Nc1cc(-c2c[nH]c(C(=O)NC(CO)c3cccc(Cl)c3)c2)c(Cl)cn1 (stereo not shown) [Form C, 4-(5-Chloro-2-isopropylaminopyridin-4-yl)-1H-pyrrole-2-carboxylic acid [1-(3-chlorophenyl)-2-hydroxyethyl]amide Form C]													101.35	136.97	39	169.89	332.68	128.38	154.70

Reference: patent publication US9951041B2, “Crystalline C21H22Cl2N4O2 malonate” (BIOMED VALLEY DISCOVERIES, INC., priority 2015, dated 2018)
